Measurements taken from patent US9834542B2, “LXR modulators” (BRISTOL-MYERS SQUIBB COMPANY, priority 2013, dated 2017).
pEC50: −log10 of the molar value.

Molecular target: T1, LXRβ (Homo sapiens, UniProt P55055)
T1 construct: Co-transfection expression plasmids, comprising full-length LXRα (pCMX-h LXRα[…] or LXRβ (pCMX-hLXRβ)); expressed in transfected cells; host or cells: CV-1 African Green Monkey Kidney Cells
T1 sequence (P55055 1-460): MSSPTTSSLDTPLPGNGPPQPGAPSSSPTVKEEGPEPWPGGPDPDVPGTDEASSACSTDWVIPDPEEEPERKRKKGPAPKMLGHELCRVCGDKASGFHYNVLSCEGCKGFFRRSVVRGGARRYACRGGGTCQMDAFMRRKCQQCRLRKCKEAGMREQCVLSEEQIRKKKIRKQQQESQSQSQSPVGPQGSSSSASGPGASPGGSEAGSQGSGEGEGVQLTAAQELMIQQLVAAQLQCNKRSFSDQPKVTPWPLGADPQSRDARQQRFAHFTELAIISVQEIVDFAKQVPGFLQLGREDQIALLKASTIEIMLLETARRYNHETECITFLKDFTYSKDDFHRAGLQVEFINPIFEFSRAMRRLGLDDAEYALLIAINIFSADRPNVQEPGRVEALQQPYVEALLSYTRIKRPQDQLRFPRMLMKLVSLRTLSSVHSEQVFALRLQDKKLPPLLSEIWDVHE
T1 sequence (P19793 1-462 partner): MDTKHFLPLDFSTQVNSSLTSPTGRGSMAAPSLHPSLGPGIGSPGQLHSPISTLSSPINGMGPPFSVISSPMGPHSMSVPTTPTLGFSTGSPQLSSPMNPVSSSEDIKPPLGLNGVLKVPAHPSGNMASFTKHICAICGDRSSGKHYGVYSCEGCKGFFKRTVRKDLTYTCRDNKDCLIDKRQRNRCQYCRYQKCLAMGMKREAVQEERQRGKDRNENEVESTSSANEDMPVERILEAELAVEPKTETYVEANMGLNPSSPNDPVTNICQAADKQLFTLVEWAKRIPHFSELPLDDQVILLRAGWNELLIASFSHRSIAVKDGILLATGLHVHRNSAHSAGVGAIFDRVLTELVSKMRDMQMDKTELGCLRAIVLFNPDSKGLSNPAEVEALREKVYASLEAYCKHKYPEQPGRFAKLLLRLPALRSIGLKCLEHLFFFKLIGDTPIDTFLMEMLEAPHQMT
Assay: Co-transfection assay (LXRE luciferase reporter), LXRβ
Assay type: cell-based
Conditions: for pEC50: CV-1 cells transfected with pCMX-hLXRβ and LXREx1-Tk-Luciferase, 20 hours incubation; for Emax: LXRβ co-transfection, relative to high control 1-(2,4-difluorobenzyl)-2-oxo-6-(4-phenoxyphenyl)-4-(trifluoromethyl)-1,2-dihydropyridine-3-carbonitrile, read-out: % Efficacy
Outline: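 CV-1 cells transiently co-transfected with full-length human LXRβ (or LXRα), LXREx1-Tk-luciferase reporter and β-galactosidase control; compound added (10 μM final in single-point, 11-point ½-log curves, ≤0.5% DMSO) for 20 h at 37 °C. Luciferase read; EC50 from four-parameter fit, efficacy relative to reference agonist high control.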

Cc1nc(C(F)(F)F)cn1-c1ccc(-c2cccc(S(C)(=O)=O)c2)cc1-n1nncc1-c1ccc2c(c1)OCO2 [Example 29, 5-(1,3-benzodioxol-5-yl)-1-{3′-(methylsulfonyl)-4-[2-methyl-4-(trifluoromethyl)-1H-imidazol-1-yl]biphenyl-3-yl}-1H-1,2,3-triazole]
pEC50: 6.22
Emax: 65%

Cc1nc(C(F)(F)F)cn1-c1ccc(-c2cc(F)c(CO)c(S(C)(=O)=O)c2)cc1-c1nc(C(C)C)oc1-c1ccc2c(c1)OC(F)(F)O2 [Example 481, (3′-(5-(2,2-difluorobenzo[d][1,3]dioxol-5-yl)-2-isopropyloxazol-4-yl)-3-fluoro-4′-(2-methyl-4-(trifluoromethyl)-1H-imidazol-1-yl)-5-(methylsulfonyl)biphenyl-4-yl)methanol]
pEC50: 7.27
Emax: 66%

Cc1nc(-c2cc(-c3cc(F)c(CO)c(S(C)(=O)=O)c3)ccc2-n2cc(C(F)(F)F)nc2C)c(-c2ccc(OC(F)F)cc2)o1 [Example 496, (3′-(5-(4-(difluoromethoxy)phenyl)-2-methyloxazol-4-yl)-3-fluoro-4′-(2-methyl-4-(trifluoromethyl)-1H-imidazol-1-yl)-5-(methylsulfonyl)biphenyl-4-yl)methanol]
pEC50: 7.32
Emax: 116%

Cc1nc(-c2cc(-c3cc(F)c(CO)c(S(C)(=O)=O)c3)ccc2-n2cc(C(F)(F)F)nc2C)c(-c2ccc(Cl)cc2)o1 [Example 374, {3′-[5-(4-chlorophenyl)-2-methyl-1,3-oxazol-4-yl]-3-fluoro-5-(methylsulfonyl)-4′-[2-methyl-4-(trifluoromethyl)-1H-imidazol-1-yl]biphenyl-4-yl}methanol]
pEC50: 7.30
Emax: 72%

Cc1nc(C(F)(F)F)cn1-c1ccc(-c2cc(F)c(CO)c(S(C)(=O)=O)c2)cc1-c1nc(C2CC2)cn1-c1ccc(Cl)cc1 [Example 647, (3′-(1-(4-chlorophenyl)-4-cyclopropyl-1H-imidazol-2-yl)-3-fluoro-4′-(2-methyl-4-(trifluoromethyl)-1H-imidazol-1-yl)-5-(methylsulfonyl)-[1,1′-biphenyl]-4-yl)methanol]
pEC50: 6.46
Emax: 49%

CCc1nc(-c2ccc(OC(F)(F)F)cc2)c(-c2cc(-c3cc(F)c(CO)c(S(C)(=O)=O)c3)ccc2-n2cc(C(F)(F)F)nc2C)o1 [Example 600, {3′-(2-ethyl-4-{4-[(trifluoromethyl)oxy]phenyl}-1,3-oxazol-5-yl)-3-fluoro-5-(methylsulfonyl)-4′-[2-methyl-4-(trifluoromethyl)-1H-imidazol-1-yl]biphenyl-4-yl}methanol]
pEC50: 7.70
Emax: 101%

Cc1nc(C(F)(F)F)cn1-c1ccc(-c2cccc(S(C)(=O)=O)c2)cc1-n1nncc1C(=O)c1ccc(C(F)(F)F)cc1 [Example 138, (1-{3′-(methylsulfonyl)-4-[2-methyl-4-(trifluoromethyl)-1H-imidazol-1-yl]biphenyl-3-yl}-1H-1,2,3-triazol-5-yl)[4-(trifluoromethyl)phenyl]meth-anone]
pEC50: 5.89
Emax: 99%

Cc1nc(-c2cc(-c3cc(F)c(CO)c(S(C)(=O)=O)c3)ccc2-n2cc(C(F)(F)F)nc2C)c(-c2cccc(OC(F)(F)C(F)F)c2)o1 [Example 546, (3-fluoro-4′-(2-methyl-4-(trifluoromethyl)-1H-imidazol-1-yl)-3′-(2-methyl-5-(3-(1,1,2,2-tetrafluoroethoxy)phenyl)oxazol-4-yl)-5-(methylsulfonyl)-[1,1′-biphenyl]-4-yl)methanol]
pEC50: 6.92
Emax: 51%

Cc1nc(-c2cc(-c3cccc(S(C)(=O)=O)c3)ccc2-n2cc(C(F)(F)F)nc2C)c(-c2ccc(OC(F)(F)F)cc2)o1 [Example 366, 2-methyl-4-{3′-(methylsulfonyl)-4-[2-methyl-4-(trifluoromethyl)-1H-imidazol-1-yl]biphenyl-3-yl}-5-{4-[(trifluoromethyl)oxy]phenyl}-1,3-oxazole]
pEC50: 7.11
Emax: 89%

C=Cc1nc(-c2cc(-c3cccc(S(C)(=O)=O)c3)ccc2-n2cc(C(F)(F)F)nc2C)c(-c2ccc3c(c2)OC(F)(F)O3)o1 [Example 532]
pEC50: 7.80
Emax: 89%

Cc1nc(C(F)(F)F)cn1-c1ccc(-c2cc(F)c(CO)c(S(C)(=O)=O)c2)cc1-n1nncc1C(C)(C)c1ccc(Cl)cc1 [Example 223, (3′-(5-(2-(4-chlorophenyl)propan-2-yl)-1H-1,2,3-triazol-1-yl)-3-fluoro-4′-(2-methyl-4-(trifluoromethyl)-1H-imidazol-1-yl)-5-(methylsulfonyl)-[1,1′-biphenyl]-4-yl)methanol]
pEC50: 5.75
Emax: 63%

Cc1nc(-c2cc(-c3cc(F)c(CO)c(S(C)(=O)=O)c3)ccc2-n2cc(C(F)(F)F)nc2C)c(-c2cccnc2OC(F)F)o1 [Example 389, (3′-(5-(2-(difluoromethoxy)pyridin-3-yl)-2-methyloxazol-4-yl)-3-fluoro-4′-(2-methyl-4-(trifluoromethyl)-1H-imidazol-1-yl)-5-(methylsulfonyl)biphenyl-4-yl)methanol]
pEC50: 6.62
Emax: 39%

Cc1cc(-c2cc(-c3cc(O)c(CF)c(S(C)(=O)=O)c3)ccc2-n2cc(C(F)(F)F)nc2C)n(-c2ccc(OC(F)(F)F)cc2)n1 [Example 303, 4-(fluoromethyl)-3′-(3-methyl-1-(4-(trifluoromethoxy)phenyl)-1H-pyrazol-5-yl)-4′-(2-methyl-4-(trifluoromethyl)-1H-imidazol-1-yl)-5-(methylsulfonyl)-[1,1′-biphenyl]-3-ol]
pEC50: 7.68
Emax: 68%

Cc1nc(C(F)F)cn1-c1ccc(-c2cc(F)c(CO)c(S(C)(=O)=O)c2)cc1-c1cnnn1Cc1ccc(Cl)cc1 [Example 248, (3′-(1-(4-chlorobenzyl)-1H-1,2,3-triazol-5-yl)-4′-(4-(difluoromethyl)-2-methyl-1H-imidazol-1-yl)-3-fluoro-5-(methylsulfonyl)-[1,1′-biphenyl]-4-yl)methanol]
pEC50: 6.73
Emax: 88%

Cc1nc(C(F)(F)F)cn1-c1ccc(-c2cccc(C(C)(C)C(=O)O)c2)cc1-n1nncc1-c1ccc(OC(F)(F)F)cc1 [Example 95, 2-methyl-2-{4′-[2-methyl-4-(trifluoromethyl)-1H-imidazol-1-yl]-3′-(5-{4-[(trifluoromethyl)oxy]phenyl}-1H-1,2,3-triazol-1-yl)biphenyl-3-yl}propanoic acid]
pEC50: 5.55
Emax: 139%

Cc1nc(C(F)F)cn1-c1ccc(-c2cc(F)c(CO)c(S(C)(=O)=O)c2)cc1-n1nncc1-c1ccc(OC(F)(F)F)cc1 [Example 220, (4′-(4-(difluoromethyl)-2-methyl-1H-imidazol-1-yl)-3-fluoro-5-(methylsulfonyl)-3′-(5-(4-(trifluoromethoxy)phenyl)-1H-1,2,3-triazol-1-yl)-[1,1′-biphenyl]-4-yl)methanol]
pEC50: 6.11
Emax: 102%

Cc1nc(C(F)(F)F)cn1-c1ccc(-c2cccc(S(=O)(=O)N(C)C)c2)cc1-c1ocnc1-c1ccc(OC(F)(F)F)cc1 [Example 358, N,N-dimethyl-4′-[2-methyl-4-(trifluoromethyl)-1H-imidazol-1-yl]-3′-(4-{4-[(trifluoromethyl)oxy]phenyl}-1,3-oxazol-5-yl)biphenyl-3-sulfonamide]
pEC50: 6.94
Emax: 87%

Cc1nc(C(F)(F)F)cn1-c1cc(F)c(-c2cccc(S(C)(=O)=O)c2)cc1-n1nncc1-c1ccc(OC(F)(F)F)cc1 [Example 99, 1-{6-fluoro-3′-(methylsulfonyl)-4-[2-methyl-4-(trifluoromethyl)-1H-imidazol-1-yl]biphenyl-3-yl}-5-{4-[(trifluoromethyl)oxy]phenyl}-1H-1,2,3-triazole]
pEC50: 6.00
Emax: 86%

Cc1nc(C(F)(F)F)cn1-c1ccc(-c2cccc(S(C)(=O)=O)c2)cc1-n1nncc1CC1CCC(C)CC1 (centres unmarked) [Example 127, 5-[(4-methylcyclohexyl)methyl]-1-{3′-(methylsulfonyl)-4-[2-methyl-4-(trifluoromethyl)-1H-imidazol-1-yl]biphenyl-3-yl}-1H-1,2,3-triazole]
pEC50: 6.11
Emax: 55%
